Consider two compounds from US20230104124A1, “N-PALMITOYLETHANOLAMIDE AND DOCOSAHEXAENOIC ACID FOR USE IN THE TREATMENT OF AUTISM SPECTRUM DISORDER AND OTHER DEPRESSIVE SYNDROMES” (EPITECH GROUP S.P.A., priority 2021, published 2023).

Series [1] relates to BTBR mice. Briefly: Marble Burying test in BTBR mice. It counts as in vivo. To be noted: per os daily for 10 days, PEA-um 1 mg/kg, DHA 5 mg/kg (30 mg/kg DHA 17% titer), 8 animals per group. The text has this:
(§1) Healthy male C57BL/6J (C57) mice and 90-day BTBR T+tf/J (BTBR) mice (The Jackson Laboratory, Bar Harbor, ME, USA) fed ad libitum and housed in controlled sleep/wake cycle cages were used in the in vivo trial. Before the start of the experimentation, the animals were subjected to an acclimatization period of 1 week considering all the experimental procedures and protocols, compliant with the principles of care and welfare of laboratory animals approved by the Italian Ministry of Health (Italian Legislative Decree 2014/26) and European directives (EU Directive 2010/63). […]
(§2) All the values reported in the results are expressed as mean ± standard error of the mean (SEM) of N observations (N = number of animals). The statistical differences in the ALLO dosage and behavioral score were analyzed with one-way ANOVA, followed by Sidak’s multiple comparisons. […]

The test system of series [2] is BTBR mice. Briefly: Self Grooming test in BTBR mice. It is filed as in vivo. To be noted: monitored for 20 minutes, per os daily for 10 days, PEA-um 1 mg/kg, DHA 5 mg/kg (30 mg/kg DHA 17% titer).
From the text: as §1, §2
In the Self Grooming test, the mice were placed in an empty plexiglass cage (30x40 cm) and allowed to freely explore the arena. After 10 minutes of acclimatization, self grooming activity was monitored for 20 minutes. […]

The subject of series [3] is BTBR mice. The series is described as follows: Sociability, three-chamber test in BTBR mice. It is filed as in vivo. To be noted: per os daily for 10 days, PEA-um 1 mg/kg, DHA 5 mg/kg (30 mg/kg DHA 17% titer).
From the text: as §1, §2
(§3) In the last 10-minute phase, the preference of the mouse in staying in the empty chamber or in the presence of the mouse was evaluated (Crawley JN, Designing mouse behavioral tasks relevant to autistic-like behaviors, Ment. Retard Dev. Disabil. Res. Rev. 2004, 10: 248-258). The time spent in each chamber was detected by a camera coupled to video tracking software.

In another series the test system is C57 mice. Briefly: Sociability, three-chamber test in healthy C57 mice. It is filed as in vivo. To be noted: per os daily for 10 days, PEA-um 1 mg/kg, DHA 5 mg/kg (30 mg/kg DHA 17% titer).
From the text: as §1, §2, §3

The next series has as its system plasma ALLO levels. The series is described as follows: Plasma ALLO neurosteroid levels in BTBR mice. It is filed as in vivo. To be noted: plasma 10 days after starting daily per os treatment, PEA-um 1 mg/kg, DHA 5 mg/kg (30 mg/kg DHA 17% titer).
From the text: as §1, §2

The test system of series [4] is mice with a simil-autistic phenotype. To be noted: cited from earlier work.
In the next series the test system is autistic children. To be noted: PEA-um 600 mg/day, 3-month treatment; cited from earlier work.
For series [5] the following is noted: intravenous infusion; during the 60 hours of administration; cited from earlier work.

`CCCCCCCCCCCCCCCC(=O)NCCO` [PEA-um, N-palmitoylethanolamide]: the “Number of marbles buried in 15 min (obsessive behavior)” value in the series with BTBR mice [1] is “obsessively bury the marbles”. Further, the “Time spent self-grooming (repetitive behavior)” value in the series with BTBR mice [2] is given as “did not demonstrate any reduction in the time (s) spent self-grooming”. Besides, the “Sociability (time spent in empty chamber or chamber occupied by a mouse)” value in the series on BTBR mice [3] is on record as “did not demonstrate social improvements”. Moreover, the “Sociability (time spent in empty chamber or chamber occupied by a mouse)” value with C57 mice was “enhanced sociability to another mouse”. Moreover, the “Plasma ALLO levels” value in the series with plasma ALLO levels is “significant reduction in plasma ALLO levels”. In series [4], the Altered behavioral status result is “modulating the altered behavioral status”; the “Expression of pro-inflammatory hippocampal and serum cytokines IL-6, IL-1b and TNF-a” value is “reducing the expression of the pro-inflammatory hippocampal and serum cytokines IL-6, IL-1b and TNF-a”. In addition, the “Clinical effect on autistic symptoms” value in the series on autistic children is “improves aggressiveness, cognitive and behavioral skills, and communication”.
On to `CC(=O)[C@H]1CC[C@H]2[C@@H]3CC[C@H]4C[C@H](O)CC[C@]4(C)[C@H]3CC[C@]12C` [Zulresso, allopregnanolone], for which, in series [5], the Risks during administration entry is reported as “risk of excessive sedation, sudden loss of consciousness or dizziness”.
